This is an account of results in patent publication US10336732B2, “1-heterocyclyl isochromanyl compounds and analogs for treating CNS disorders” (Sunovion Pharmaceuticals Inc., priority 2015, dated 2019).

Structures are written as SMILES.

For the assay, the system named is mice. In words: Neuropharmacological assay (SmartCube), behavioral signature of compound-treated mice. The settings on record: i.p. 15 min before behavioral test, most efficacious dose(s) of 3 doses. Type of assay: in vivo. The procedure, abridged: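 Read-out is an automated video-based behavioral signature, scored as per-class probabilities (e.g., anxiolytic, antidepressant) against reference compounds. Dosing was i.p. at three doses, 15 min pre-test, in NMP, polyethylene glycol and propylene glycol. Values shown are from the most efficacious dose(s).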
Take `Cc1ccc2c(c1)[C@H](C1CNC1)OCC2` [Compound I-117, (S)-3-(7-methylisochroman-1-yl)azetidine]: the “AD: ADHD (probability that behavioral signature matches class)” value (“AD: ADHD” for short) is recorded as “+ (LOQ ≤ + <5%)”, the “AG: analgesic (probability that behavioral signature matches class)” value (“AG: analgesic” for short) is reported as “+ (LOQ ≤ + <5%)”, the “AX: anxiolytic (probability that behavioral signature matches class)” value (from here on “AX: anxiolytic”) is on record as “++ (5% ≤ ++ <25%)” and the “CE: cognitive enhancer (probability that behavioral signature matches class)” value (shortened to “CE: cognitive enhancer”) was “++ (5% ≤ ++ <25%)”. In addition, the “DP: anti-depressant (probability that behavioral signature matches class)” value (“DP: anti-depressant” below) is given as “++ (5% ≤ ++ <25%)”, the “HA: hallucinogen (probability that behavioral signature matches class)” value (shortened to “HA: hallucinogen”) is “+ (LOQ ≤ + <5%)”, the “MS: mood stabilizer (probability that behavioral signature matches class)” value (from here on “MS: mood stabilizer”) is recorded as “+ (LOQ ≤ + <5%)” and the “PS: anti-psychotic (probability that behavioral signature matches class)” value (“PS: anti-psychotic” below) is listed as “+++ (25% ≤ +++ <50%)”. The “SD: sedative hypnotic (probability that behavioral signature matches class)” value (from here on “SD: sedative hypnotic”) is “+ (LOQ ≤ + <5%)”, the “UN: uncharacterized CNS activity (probability that behavioral signature matches class)” value (from here on “UN: uncharacterized CNS activity”) is given as “+ (LOQ ≤ + <5%)” and the “XG: anxiogenic (probability that behavioral signature matches class)” value (“XG: anxiogenic” for short) is listed as “+ (LOQ ≤ + <5%)”.
As to `Fc1ccc2c(c1)CO[C@@H]2[C@@H]1CCCN1` [Compound I-118, (S)-2-((S)-5-fluoro-1,3-dihydroisobenzofuran-1-yl)pyrrolidine], the “AD: ADHD” value was “+ (LOQ ≤ + <5%)”, the “AG: analgesic” value is “++ (5% ≤ ++ <25%)”, the “AX: anxiolytic” value was “+++ (25% ≤ +++ <50%)” and the “CE: cognitive enhancer” value was “++ (5% ≤ ++ <25%)”. The “DP: anti-depressant” value is “++ (5% ≤ ++ <25%)”, the “HA: hallucinogen” value was “+ (LOQ ≤ + <5%)”, the “MS: mood stabilizer” value is listed as “++ (5% ≤ ++ <25%)” and the “PS: anti-psychotic” value was “+++ (25% ≤ +++ <50%)”. Besides, the “SD: sedative hypnotic” value is given as “++ (5% ≤ ++ <25%)”, the “UN: uncharacterized CNS activity” value is given as “+ (LOQ ≤ + <5%)” and the “XG: anxiogenic” value is “+ (LOQ ≤ + <5%)”.
Consider `Fc1ccc2c(c1)CO[C@H]2[C@@H]1CCCN1` [Compound I-119, (S)-2-((R)-5-fluoro-1,3-dihydroisobenzofuran-1-yl)pyrrolidine], for which the “AD: ADHD” value is listed as “+ (LOQ ≤ + <5%)”, the “AG: analgesic” value is given as “+++ (25% ≤ +++ <50%)”, the “AX: anxiolytic” value is listed as “++ (5% ≤ ++ <25%)” and the “CE: cognitive enhancer” value is listed as “++ (5% ≤ ++ <25%)”. Also, the “DP: anti-depressant” value is recorded as “++ (5% ≤ ++ <25%)”, the “HA: hallucinogen” value is given as “+ (LOQ ≤ + <5%)”, the “MS: mood stabilizer” value is “+ (LOQ ≤ + <5%)” and the “PS: anti-psychotic” value is “+++ (25% ≤ +++ <50%)”. The “SD: sedative hypnotic” value was “+ (LOQ ≤ + <5%)”, the “UN: uncharacterized CNS activity” value is “+ (LOQ ≤ + <5%)” and the “XG: anxiogenic” value is on record as “+ (LOQ ≤ + <5%)”.
With `Fc1ccc2c(c1)CO[C@@H]2[C@H]1CCCN1` [Compound I-120, (R)-2-((S)-5-fluoro-1,3-dihydroisobenzofuran-1-yl)pyrrolidine], the “AD: ADHD” value is “+ (LOQ ≤ + <5%)”, the “AG: analgesic” value is listed as “++ (5% ≤ ++ <25%)”, the “AX: anxiolytic” value is “++ (5% ≤ ++ <25%)” and the “CE: cognitive enhancer” value was “+++ (25% ≤ +++ <50%)”. Further, the “DP: anti-depressant” value was “++ (5% ≤ ++ <25%)”, the “HA: hallucinogen” value is on record as “+ (LOQ ≤ + <5%)”, the “MS: mood stabilizer” value was “++ (5% ≤ ++ <25%)” and the “PS: anti-psychotic” value is reported as “++ (5% ≤ ++ <25%)”. In addition, the “SD: sedative hypnotic” value is “++ (5% ≤ ++ <25%)”, the “UN: uncharacterized CNS activity” value was “++ (5% ≤ ++ <25%)” and the “XG: anxiogenic” value was “+ (LOQ ≤ + <5%)”.
`Fc1ccc2c(c1)CO[C@H]2[C@H]1CCCN1` [Compound I-121, (R)-2-((R)-5-fluoro-1,3-dihydroisobenzofuran-1-yl)pyrrolidine]: the “AD: ADHD” value is listed as “+ (LOQ ≤ + <5%)”, the “AG: analgesic” value is “+++ (25% ≤ +++ <50%)”, the “AX: anxiolytic” value is on record as “+++ (25% ≤ +++ <50%)” and the “CE: cognitive enhancer” value is given as “++ (5% ≤ ++ <25%)”. Further, the “DP: anti-depressant” value is reported as “++ (5% ≤ ++ <25%)”, the “HA: hallucinogen” value is “+ (LOQ ≤ + <5%)”, the “MS: mood stabilizer” value is “+ (LOQ ≤ + <5%)” and the “PS: anti-psychotic” value is given as “++ (5% ≤ ++ <25%)”. Moreover, the “SD: sedative hypnotic” value is recorded as “++ (5% ≤ ++ <25%)”, the “UN: uncharacterized CNS activity” value is “++ (5% ≤ ++ <25%)” and the “XG: anxiogenic” value was “+ (LOQ ≤ + <5%)”.
Turning to `C[C@@]1([C@@H]2CCCN2)OCc2cc(F)ccc21` [Compound I-122, (S)-2-((R)-5-fluoro-1-methyl-1,3-dihydroisobenzofuran-1-yl)pyrrolidine], the “AD: ADHD” value was “+ (LOQ ≤ + <5%)”, the “AG: analgesic” value is given as “+ (LOQ ≤ + <5%)”, the “AX: anxiolytic” value is listed as “++ (5% ≤ ++ <25%)” and the “CE: cognitive enhancer” value is “+ (LOQ ≤ + <5%)”. In addition, the “DP: anti-depressant” value was “++ (5% ≤ ++ <25%)”, the “HA: hallucinogen” value is “+ (LOQ ≤ + <5%)”, the “MS: mood stabilizer” value is recorded as “+ (LOQ ≤ + <5%)” and the “PS: anti-psychotic” value is “+ (LOQ ≤ + <5%)”. For the same molecule, the “SD: sedative hypnotic” value was “+ (LOQ ≤ + <5%)”, the “UN: uncharacterized CNS activity” value was “+ (LOQ ≤ + <5%)” and the “XG: anxiogenic” value is reported as “+ (LOQ ≤ + <5%)”.
`C[C@]1([C@@H]2CCCN2)OCc2cc(F)ccc21` [Compound I-123, (S)-2-((S)-5-fluoro-1-methyl-1,3-dihydroisobenzofuran-1-yl)pyrrolidine]: the “AD: ADHD” value is reported as “+ (LOQ ≤ + <5%)”, the “AG: analgesic” value is “+ (LOQ ≤ + <5%)”, the “AX: anxiolytic” value was “+ (LOQ ≤ + <5%)” and the “CE: cognitive enhancer” value is on record as “+ (LOQ ≤ + <5%)”. Further, the “DP: anti-depressant” value is recorded as “+ (LOQ ≤ + <5%)”, the “HA: hallucinogen” value is reported as “+ (LOQ ≤ + <5%)”, the “MS: mood stabilizer” value is given as “+ (LOQ ≤ + <5%)” and the “PS: anti-psychotic” value is recorded as “+ (LOQ ≤ + <5%)”. In addition, the “SD: sedative hypnotic” value is recorded as “+ (LOQ ≤ + <5%)”, the “UN: uncharacterized CNS activity” value is on record as “+ (LOQ ≤ + <5%)” and the “XG: anxiogenic” value is recorded as “+ (LOQ ≤ + <5%)”.
